Structures can show the parent of a compound that is named as a salt.

Broadly, the melting point is the temperature, or range, at which the solid turns liquid.

In one series the test system is LNCaP (human prostate cancer cells). The series is described as follows: Anti-proliferative activity on LNCaP cell line (WST1 colorimetric test). In kind it is cell-based. Particulars: treated for 96 hours, read-out: IC50 on the cell proliferation of the LNCaP lines. As to the method:
(§1) By way of example, the effect of a treatment on three human cell lines DU145, LNCaP and A2058 with the compounds of the examples described previously will be studied. The cell lines DU145 and LNCaP (human prostate cancer cells) and A2058 (human melanoma cancer cells) were acquired from the American Tissue Culture Collection (Rockville, Md., USA). The cells placed in 80 μl of Dulbecco's Modified Eagle medium (Gibco-Brl, Cergy-Pontoise, France) completed with 10% foetal calf serum inactivated by heating (Gibco-Brl, Cergy-Pontoise, France), 50000 units/l of penicillin and 50 mg/l streptomycin (Gibco-Brl, Cergy-Pontoise, France), and 2 mM of glutamin (Gibco-Brl, Cergy-Pontoise, France) were seeded on a 96-well plate on day 0. The cells were treated on day 1 for 96 hours with increasing concentrations of each of the compounds to be tested up to 10 μM. At the end of this period, the quantification of the cell proliferation is evaluated by a colorimetric test based on the cleavage of the tetrazolium salt WST1 by mitochondrial dehydrogenases in the viable cells leading to the formation of formazan (Boehringer Mannheim, Meylan, France). These tests are carried out in duplicate with 8 determinations per tested concentration. For each compound to be tested, the values included in the linear part of the sigmoid were retained for linear regression analysis and used in order to estimate the inhibitory concentration IC50. The products are solubilized in dimethylsulphoxide (DMSO) at 10^−2 M and finally used in culture with 0.1% DMSO.
(Tetrazolium dyes change colour on reduction, which living cells bring about.)
On to `CC(C)(C)OC(=O)N[C@@H](CSSC[C@H](NC(=O)OC(C)(C)C)C(=O)N1CCn2nc(-c3ccncc3)cc2C1CCc1ccccc1)C(=O)N1CCn2nc(-c3ccncc3)cc2C1CCc1ccccc1` (mixture of isomers) [Example 3, tert-butyl {(1R)-1-[({(2R)-2-[(tert-butoxycarbonyl)amino]-3-oxo-3-[(4RS)-4-(2-phenylethyl)-2-pyridin-4-yl-6,7-dihydropyrazolo[1,5-a]pyrazin-5(4H)-yl]propyl}dithio)methyl]-2-oxo-2-[(4RS)-4-(2-phenylethyl)-2-pyridin-4-yl-6,7-dihydropyrazolo[1,5-a]pyrazin-5(4H)-yl]ethyl}carbamate] [listing 1 of 2 here], for which the IC50 is at most 10 µM.
`N[C@@H](CSSC[C@H](N)C(=O)N1CCn2nc(-c3ccncc3)cc2C1CCc1ccccc1)C(=O)N1CCn2nc(-c3ccncc3)cc2C1CCc1ccccc1` (mixture of isomers) [Example 14, (2R)-3-({(2R)-2-amino-3-oxo-3-[(4RS)-4-(2-phenylethyl)-2-pyridin-4-yl-6,7-dihydropyrazolo[1,5-a]pyrazin-5(4H)-yl]propyl}dithio)-1-oxo-1-[(4RS)-4-(2-phenylethyl)-2-pyridin-4-yl-6,7-dihydropyrazolo[1,5-a]pyrazin-5(4H)-yl]propan-2-amine hydrochloride]: the IC50 was at most 10 µM.
For the molecule `N[C@@H](CSSC[C@H](N)C(=O)N1CCn2nc(-c3cccnc3)cc2C1CCc1ccccc1)C(=O)N1CCn2nc(-c3cccnc3)cc2C1CCc1ccccc1` (mixture of isomers) [Example 15, (2R)-3-({(2R)-2-amino-3-oxo-3-[(4RS)-4-(2-phenylethyl)-2-pyridin-3-yl-6,7-dihydropyrazolo[1,5-a]pyrazin-5(4H)-yl]propyl}dithio)-1-oxo-1-[(4RS)-4-(2-phenylethyl)-2-pyridin-3-yl-6,7-dihydropyrazolo[1,5-a]pyrazin-5(4H)-yl]propan-2-amine hydrochloride], the IC50 is at most 10 µM.

Another series concerns A2058 (human melanoma cancer cells). Put plainly: Anti-proliferative activity on A2058 cell line (WST1 colorimetric test). In kind it is cell-based. Particulars: treated for 96 hours, read-out: IC50 on the cell proliferation of the A2058 lines. As to the method:
as §1
For `N[C@@H](CSSC[C@H](N)C(=O)N1CCn2nc(-c3ccncc3)cc2C1CCc1ccccc1)C(=O)N1CCn2nc(-c3ccncc3)cc2C1CCc1ccccc1` (mixture of isomers) [Example 14, (2R)-3-({(2R)-2-amino-3-oxo-3-[(4RS)-4-(2-phenylethyl)-2-pyridin-4-yl-6,7-dihydropyrazolo[1,5-a]pyrazin-5(4H)-yl]propyl}dithio)-1-oxo-1-[(4RS)-4-(2-phenylethyl)-2-pyridin-4-yl-6,7-dihydropyrazolo[1,5-a]pyrazin-5(4H)-yl]propan-2-amine hydrochloride], the IC50 was at most 30 µM.
For `N[C@@H](CSSC[C@H](N)C(=O)N1CCn2nc(-c3cccnc3)cc2C1CCc1ccccc1)C(=O)N1CCn2nc(-c3cccnc3)cc2C1CCc1ccccc1` (mixture of isomers) [Example 15, (2R)-3-({(2R)-2-amino-3-oxo-3-[(4RS)-4-(2-phenylethyl)-2-pyridin-3-yl-6,7-dihydropyrazolo[1,5-a]pyrazin-5(4H)-yl]propyl}dithio)-1-oxo-1-[(4RS)-4-(2-phenylethyl)-2-pyridin-3-yl-6,7-dihydropyrazolo[1,5-a]pyrazin-5(4H)-yl]propan-2-amine hydrochloride], the IC50 was at most 20 µM.

System in a further series: not given
Assay: not given
Conditions: not given
Turning to `CC(C)(C)OC(=O)N[C@@H](CSSC[C@H](NC(=O)OC(C)(C)C)C(=O)N1CCn2nc(-c3ccccc3)cc2C1CC1CCCCC1)C(=O)N1CCn2nc(-c3ccccc3)cc2C1CC1CCCCC1` (mixture of isomers) [Example 1, tert-butyl {(1R)-1-[({(2R)-2-[(tert-butoxycarbonyl)amino]-3-[(4RS)-4-(cyclohexylmethyl)-2-phenyl-6,7-dihydropyrazolo[1,5-a]pyrazin-5(4H)-yl]-3-oxopropyl}dithio)methyl]-2-[(4RS)-4-(cyclohexylmethyl)-2-phenyl-6,7-dihydropyrazolo[1,5-a]pyrazin-5(4H)-yl]-2-oxoethyl}carbamate], the melting point was 129 to 132 °C.
Turning to `CC(C)(C)OC(=O)N[C@@H](CSSC[C@H](NC(=O)OC(C)(C)C)C(=O)N1CCn2nc(-c3ccccc3)cc2C1CCc1ccccc1)C(=O)N1CCn2nc(-c3ccccc3)cc2C1CCc1ccccc1` (mixture of isomers) [Example 2, tert-butyl {(1R)-1-[({(2R)-2-[(tert-butoxycarbonyl)amino]-3-oxo-3-[(4RS)-2-phenyl-4-(2-phenylethyl)-6,7-dihydropyrazolo[1,5-a]pyrazin-5(4H)-yl]propyl}dithio)methyl]-2-oxo-2-[(4RS)-2-phenyl-4-(2-phenylethyl)-6,7-dihydropyrazolo[1,5-a]pyrazin-5(4H)-yl]ethyl}carbamate], the melting point lay in the range of 123 to 127 °C.
Still for that read-out and setting: to `CC(C)(C)OC(=O)N[C@@H](CSSC[C@H](NC(=O)OC(C)(C)C)C(=O)N1CCn2nc(-c3ccncc3)cc2C1CCc1ccccc1)C(=O)N1CCn2nc(-c3ccncc3)cc2C1CCc1ccccc1` (mixture of isomers) [Example 3, tert-butyl {(1R)-1-[({(2R)-2-[(tert-butoxycarbonyl)amino]-3-oxo-3-[(4RS)-4-(2-phenylethyl)-2-pyridin-4-yl-6,7-dihydropyrazolo[1,5-a]pyrazin-5(4H)-yl]propyl}dithio)methyl]-2-oxo-2-[(4RS)-4-(2-phenylethyl)-2-pyridin-4-yl-6,7-dihydropyrazolo[1,5-a]pyrazin-5(4H)-yl]ethyl}carbamate] [listing 2 of 2 here] belongs 149 to 152 °C.
As for `CC(C)(C)OC(=O)N[C@@H](CSSC[C@H](NC(=O)OC(C)(C)C)C(=O)N1CCn2nc(-c3cccnc3)cc2C1CCc1ccccc1)C(=O)N1CCn2nc(-c3cccnc3)cc2C1CCc1ccccc1` (mixture of isomers) [Example 4, tert-butyl {(1R)-1-[({(2R)-2-[(tert-butoxycarbonyl)amino]-3-oxo-3-[(4RS)-4-(2-phenylethyl)-2-pyridin-3-yl-6,7-dihydropyrazolo[1,5-a]pyrazin-5(4H)-yl]propyl}dithio)methyl]-2-oxo-2-[(4RS)-4-(2-phenylethyl)-2-pyridin-3-yl-6,7-dihydropyrazolo[1,5-a]pyrazin-5(4H)-yl]ethyl}carbamate], the melting point was in the range of 115 to 130 °C.
`COc1cc(-c2cc3n(n2)CCN(C(=O)[C@H](CSSC[C@H](NC(=O)OC(C)(C)C)C(=O)N2CCn4nc(-c5cc(OC)c(OC)c(OC)c5)cc4C2CCc2ccccc2)NC(=O)OC(C)(C)C)C3CCc2ccccc2)cc(OC)c1OC` (mixture of isomers) [Example 6, tert-butyl {(1R)-1-[({(2R)-2-[(tert-butoxycarbonyl)amino]-3-oxo-3-[(4RS)-4-(2-phenylethyl)-2-(3,4,5-trimethoxyphenyl)-6,7-dihydropyrazolo[1,5-a]pyrazin-5(4H)-yl]propyl}dithio)methyl]-2-oxo-2-[(4RS)-4-(2-phenylethyl)-2-(3,4,5-trimethoxyphenyl)-6,7-dihydropyrazolo[1,5-a]pyrazin-5(4H)-yl]ethyl}carbamate] returned a melting point of 130 to 136 °C.
The same measure, in the same setting: the figure for `CC(C)(C)OC(=O)N[C@@H](CSSC[C@H](NC(=O)OC(C)(C)C)C(=O)N1CCn2nc(-c3cccs3)cc2C1CCc1ccccc1)C(=O)N1CCn2nc(-c3cccs3)cc2C1CCc1ccccc1` (mixture of isomers) [Example 7, tert-butyl {(1R)-1-[({(2R)-2-[(tert-butoxycarbonyl)amino]-3-oxo-3-[(4RS)-4-(2-phenylethyl)-2-(2-thienyl)-6,7-dihydropyrazolo[1,5-a]pyrazin-5(4H)-yl]propyl}dithio)methyl]-2-oxo-2-[(4RS)-4-(2-phenylethyl)-2-(2-thienyl)-6,7-dihydropyrazolo[1,5-a]pyrazin-5(4H)-yl]ethyl}carbamate] is 105 to 112 °C; for `CCCCC1c2cc(-c3ccccc3)nn2CCN1C(=O)[C@H](CSSC[C@H](NC(=O)OC(C)(C)C)C(=O)N1CCn2nc(-c3ccccc3)cc2C1CCCC)NC(=O)OC(C)(C)C` (mixture of isomers) [Example 10, tert-butyl {(1R)-1-[({(2R)-2-[(tert-butoxycarbonyl)amino]-3-[(4RS)-4-butyl-2-phenyl-6,7-dihydropyrazolo[1,5-a]pyrazin-5(4H)-yl]-3-oxopropyl}dithio)methyl]-2-[(4RS)-4-butyl-2-phenyl-6,7-dihydropyrazolo[1,5-a]pyrazin-5(4H)-yl]-2-oxoethyl}carbamate] it is 95 to 102 °C; for `CC(C)(C)OC(=O)N[C@@H](CSSC[C@H](NC(=O)OC(C)(C)C)C(=O)N1CCCn2nc(-c3ccccc3)cc2C1CC1CCCCC1)C(=O)N1CCCn2nc(-c3ccccc3)cc2C1CC1CCCCC1` (mixture of isomers) [Example 27, tert-butyl {(1R)-1-[({(2R)-2-[(tert-butoxycarbonyl)amino]-3-[(4RS)-4-(cyclohexylmethyl)-2-phenyl-7,8-dihydro-4H-pyrazolo[1,5-a][1,4]diazepin-5(6H)-yl]-3-oxopropyl}dithio)methyl]-2-[(4RS)-4-(cyclohexylmethyl)-2-phenyl-7,8-dihydro-4H-pyrazolo[1,5-a][1,4]diazepin-5(6H)-yl]-2-oxoethyl}carbamate] it is 105 to 116 °C.
`CC(C)(C)OC(=O)N[C@@H](CSSC[C@H](NC(=O)OC(C)(C)C)C(=O)N1CCn2nc(-c3ccccc3)cc2[C@@H]1CC1CCCCC1)C(=O)N1CCn2nc(-c3ccccc3)cc2[C@@H]1CC1CCCCC1` [Example 23, tert-butyl {(1R)-1-[({(2R)-2-[(tert-butoxycarbonyl)amino]-3-[(4S)-4-(cyclohexylmethyl)-2-phenyl-6,7-dihydropyrazolo[1,5-a]pyrazin-5(4H)-yl]-3-oxopropyl}dithio)methyl]-2-[(4S)-4-(cyclohexylmethyl)-2-phenyl-6,7-dihydropyrazolo[1,5-a]pyrazin-5(4H)-yl]-2-oxoethyl}carbamate] had a melting point of 106 to 108 °C.
In the case of `CC(C)(C)OC(=O)N[C@@H](CSSC[C@H](NC(=O)OC(C)(C)C)C(=O)N1CCn2nc(-c3ccccc3)cc2[C@H]1CC1CCCCC1)C(=O)N1CCn2nc(-c3ccccc3)cc2[C@H]1CC1CCCCC1` [Example 25, tert-butyl {(1R)-1-[({(2R)-2-[(tert-butoxycarbonyl)amino]-3-[(4R)-4-(cyclohexylmethyl)-2-phenyl-6,7-dihydropyrazolo[1,5-a]pyrazin-5(4H)-yl]-3-oxopropyl}dithio)methyl]-2-[(4R)-4-(cyclohexylmethyl)-2-phenyl-6,7-dihydropyrazolo[1,5-a]pyrazin-5(4H)-yl]-2-oxoethyl}carbamate], the melting point is 114 to 139 °C.

The record behind these values is patent US20100222332A1, “PYRAZOLO-PYRAZINES DERIVATIVES USED AS G PROTEIN INHIBITORS” (Ipsen Pharma S.A.S., priority 2007, published 2010).
